“Also recorded” adds a separate entry of the source.
What was measured:
[1] = molecular target: PPARα ligand binding domain (Homo sapiens, UniProt Q07869); assay: Surface plasmon resonance: effect of compounds on co-repressor peptide binding to PPAR LBD; conditions: SPR equilibrium response, immobilized biotinylated peptides
Protocol: (§7) A surface plasmon resonance assay was used to further characterize the effects of PPAR ligands binding of peptides derived from the co-repressors NCOR and SMRT to the PPAR subtypes. Each peptide was biotinylated and immobilized on separate flow cells of a BlAcore sensor chip. Using a BIAcore instrument, fixed concentrations of each PPAR subtype ligand binding domain were incubated with varied concentrations of test compounds and injected over the peptide-derivatized sensor chip to determine the equilibrium binding response of the receptors for the immobilized peptides.
(§8) The binding of co-activator and co-repressor peptides with PPAR ligand binding domains and the effects of compounds on these interactions were determined by surface plasmon resonance using the Biacore 3000. Approximately 300 resonance units (RU) of biotinylated peptides were immobilized to individual flow cells of a streptavidin chip. All experiments were conducted at 25° C. at a flow rate of 10 μl/minute with a buffer containing 10 mM HEPES, pH 7.4, containing 0.15 M NaCl, 3 mM EDTA and 0.005% polysorbate-20. […] Binding was determined by measuring the equilibrium binding response 10 seconds before the end of the association phase minus the response from a flow cell with no immobilized peptide.
(§9) Each point is the average of three injections.

PPARα LBD = molecular target: T1, PPARα LBD (Homo sapiens, UniProt Q07869); assay: FRET assay: ligand effect on CBP fragment / NCoR ID-C binding to PPAR LBD; format: biochemical
T1 construct: made in house; host or cells: bacterial BL21-DE3, vector pRSETA
T1 sequence (Q07869 192-468): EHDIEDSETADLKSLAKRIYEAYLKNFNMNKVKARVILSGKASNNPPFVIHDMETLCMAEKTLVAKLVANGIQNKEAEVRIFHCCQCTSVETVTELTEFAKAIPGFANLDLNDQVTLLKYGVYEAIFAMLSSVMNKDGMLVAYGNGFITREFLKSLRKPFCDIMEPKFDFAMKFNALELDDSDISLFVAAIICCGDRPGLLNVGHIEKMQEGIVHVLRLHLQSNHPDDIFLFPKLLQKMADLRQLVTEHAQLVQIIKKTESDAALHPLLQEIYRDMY
From the text: (§1) The experimentally determined α value is the ratio of cofactor affinities in the presence and absence of a saturating concentration of ligand. This analysis permits a direct comparison of the effects of compounds, independent of cofactor concentration and differences in coregulator affinity for the individual receptors. […] 98(9): p.
(§2) The effects of the coregulator environment on the apparent affinities and selectivities of various ligands were than examined. Experimentally determined pKs and the α values derived from the FRET assay were used to calculate the apparent affinity of the ligand for the receptor/cofactor complex (i.e. K/α).
(§3) FIG. 5 illustrates the effect of ligands on coactivator and corepressor binding to PPAR subtypes determined by FRET.

PPARγ LBD = molecular target: T2, PPARγ LBD (Homo sapiens, UniProt P37231); assay: as above; format: biochemical; conditions: 10 nM PPAR LBD
T2 construct: made in house; host or cells: bacterial BL21-DE3, vector pRSETA
T2 sequence (P37231 234-505): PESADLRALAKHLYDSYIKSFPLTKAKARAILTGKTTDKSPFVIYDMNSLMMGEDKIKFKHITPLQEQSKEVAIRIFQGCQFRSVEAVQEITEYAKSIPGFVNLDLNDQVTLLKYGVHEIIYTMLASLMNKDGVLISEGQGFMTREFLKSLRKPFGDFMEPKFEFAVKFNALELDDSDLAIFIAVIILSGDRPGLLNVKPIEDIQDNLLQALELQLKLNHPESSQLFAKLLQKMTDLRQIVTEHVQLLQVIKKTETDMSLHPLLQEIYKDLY
From the text: as §1, §2, §3

PPARδ LBD = molecular target: T3, PPARδ LBD (Homo sapiens, UniProt Q03181); assay: as above; format: biochemical
T3 construct: made in house; host or cells: bacterial BL21-DE3, vector pRSETA
T3 sequence (Q03181 139-441): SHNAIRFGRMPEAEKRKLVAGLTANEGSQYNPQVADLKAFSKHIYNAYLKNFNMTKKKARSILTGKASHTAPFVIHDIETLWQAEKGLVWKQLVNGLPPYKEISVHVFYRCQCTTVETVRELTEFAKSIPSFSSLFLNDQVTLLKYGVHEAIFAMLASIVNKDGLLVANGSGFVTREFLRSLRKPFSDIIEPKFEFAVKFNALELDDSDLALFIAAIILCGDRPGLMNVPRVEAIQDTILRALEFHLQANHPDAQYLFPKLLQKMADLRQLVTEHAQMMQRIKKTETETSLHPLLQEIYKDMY
From the text: as §1, §2, §3

[2] = molecular target: PPARγ ligand binding domain (Homo sapiens, UniProt P37231); assay: Surface plasmon resonance: effect of compounds on co-repressor peptide binding to PPAR LBD; conditions: SPR equilibrium response, immobilized biotinylated peptides
Chain of PPARγ ligand binding domain (P37231 234-505): as the sequence (P37231 234-505) above
Protocol: as §7, §8, §9

PPARδ LBD / RXRα LBD = molecular target: T4, PPARδ LBD / RXRα LBD (Homo sapiens, UniProt Q03181); assay: FRET assay: ligand effect on RXRα LBD binding to PPAR LBD; conditions: 10 nM PPAR LBD, 4 concentrations of RXR
T4 sequence (Q03181 139-441): T3 sequence (Q03181 139-441)
T4 sequence (P19793 225-462 partner limits assumed): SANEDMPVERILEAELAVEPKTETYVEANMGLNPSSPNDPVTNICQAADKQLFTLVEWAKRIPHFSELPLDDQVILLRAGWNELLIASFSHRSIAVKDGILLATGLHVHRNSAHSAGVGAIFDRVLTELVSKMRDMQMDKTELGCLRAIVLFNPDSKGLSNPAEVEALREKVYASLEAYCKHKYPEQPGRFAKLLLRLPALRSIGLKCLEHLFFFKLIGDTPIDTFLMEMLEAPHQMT

full length human PPARδ = molecular target: T5, full length human PPARδ (Homo sapiens, UniProt Q03181); assay: Mammalian two-hybrid assay (CV-1 cells); format: cell-based; conditions: VP16-PPARδ, GAL4-NCoR (2239-2300), result in words
T5 construct: expressed in transfected cells; host or cells: CV-1 cells, vector pVP16 (Clonetech)
T5 sequence (Q03181 whole entry, the tested form may be a part): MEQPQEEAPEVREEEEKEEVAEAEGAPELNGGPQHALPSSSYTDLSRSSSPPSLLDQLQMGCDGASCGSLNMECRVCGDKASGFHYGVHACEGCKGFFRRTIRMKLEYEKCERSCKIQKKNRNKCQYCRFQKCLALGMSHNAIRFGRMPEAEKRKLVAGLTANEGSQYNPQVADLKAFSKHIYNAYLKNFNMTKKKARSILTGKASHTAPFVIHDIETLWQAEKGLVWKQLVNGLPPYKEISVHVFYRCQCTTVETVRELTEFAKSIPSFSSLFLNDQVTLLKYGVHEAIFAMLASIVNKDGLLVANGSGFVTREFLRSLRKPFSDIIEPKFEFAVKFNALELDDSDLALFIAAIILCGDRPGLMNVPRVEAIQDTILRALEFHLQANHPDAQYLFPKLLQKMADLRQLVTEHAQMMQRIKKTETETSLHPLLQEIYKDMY
From the text: (§4) Mammalian two-hybrid assays were used to examine the ability of the tyrosine-based class of PPAR ligands to promote association or dissociation of the co-activator CBP and the corepressor NCoR in the context of a cellular environment. The assays for the three PPAR subtypes used full length human PPARα, PPARγ2 or PPARδ fused to the activation domain of VP16 and previously identified interaction domains of CBP and NCoR fused to the DNA binding domain of GAL4.
(§5) Expression plasmids for the VP16-human PPAR constructs were prepared by inserting amplified cDNAs encoding full length PPARα, PPARγ2 and PPARδ fused to amino acids 410-490 of the VP16 viral activation domain, into the expression vector pVP16 (Clonetech). […] The reporter plasmid was (UAS)5-tk-SPAP, and the internal control plasmid for all transfections was β-galactosidase expression vector (pCH110, Amersham).
(§6) CV-1 cells were maintained in culture in DME high glucose medium supplemented with 10% FBS and 2 mM glutamine in a humidified incubator (5% CO2 in air) at 37° C. Cells were harvested 72 hours prior to experimental use and placed in phenol red free D-MEM/F-12 medium with 15 mM HEPES supplemented with 10% charcoal/dextran-treated FBS (HyClone, Logan, Utah). The cells were harvested and seeded at 2.0×10^4 cell per well in a 96-well plate the day prior to transfection. Cells were transfected for 16 hr using Lipofectamine (Life Technologies, Inc., Rockville, Md.) essentially according to the manufacturer's instructions. The total amount of DNA transfected into each well was 80 ng. Transfection mixtures contained 8 ng VP16-PPAR plasmid, 8 ng SPAP reporter, 25 ng of pCH110(β-galactosidase) control plasmid, 35 ng of pBluescript II KS+ (Clonetech) and 4 ng of either coactivator or corepressor plasmid. Transfection quantities for full length PPAR and cofactor plasmids were optimized to generate a signal that was half of the maximal activation. These conditions would allow for dissociation or association to be experimentally determined for each ligand evaluated. Stock solutions of drugs were prepated in DMSO and dilutions were made in phenol red-free D-MEM/F-12 with 15 mM HEPES supplemented with 10% charcoal stripped, delipidated, heat inactivated (62° C. for 35 min) bovine calf serum (Sigma, St. Louis, Mo.) such that the final concentration of DMSO was 0.1%. Transfection mixtures were aspirated and 100 μl, of medium containing drug was added to each well.

full length human PPARα = molecular target: T6, full length human PPARα (Homo sapiens, UniProt Q07869); assay: Mammalian two-hybrid assay (CV-1 cells); format: cell-based; conditions: VP16-PPARα, GAL4-NCoR (2239-2300), result in words
T6 construct: expressed in transfected cells; host or cells: CV-1 cells, vector pVP16 (Clonetech)
T6 sequence (Q07869 1-468): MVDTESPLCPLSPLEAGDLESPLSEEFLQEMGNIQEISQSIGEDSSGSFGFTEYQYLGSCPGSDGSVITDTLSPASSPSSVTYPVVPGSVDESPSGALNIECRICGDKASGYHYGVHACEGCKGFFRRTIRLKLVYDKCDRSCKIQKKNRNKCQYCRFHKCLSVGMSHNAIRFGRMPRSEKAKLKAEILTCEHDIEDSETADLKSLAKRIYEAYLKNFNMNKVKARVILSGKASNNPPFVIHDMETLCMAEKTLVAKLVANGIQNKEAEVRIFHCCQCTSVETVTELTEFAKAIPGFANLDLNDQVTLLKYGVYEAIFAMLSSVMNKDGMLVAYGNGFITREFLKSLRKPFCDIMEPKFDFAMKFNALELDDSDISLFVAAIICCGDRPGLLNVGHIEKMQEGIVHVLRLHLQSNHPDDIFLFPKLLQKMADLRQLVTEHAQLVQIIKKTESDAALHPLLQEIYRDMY
From the text: as §4, §5, §6

[3] = α = ratio of cofactor affinities in presence and absence of saturating ligand

Compound: COC(=O)c1ccccc1N[C@@H](Cc1ccc(OCCc2nc(-c3ccccc3)oc2C)cc1)C(=O)O [GW7845]
- effect on binding of PPARα LBD to the NCOR and SMRT co-repressor peptides [1]: increase the binding
- effect on apparent affinity of PPARα for the co-activator fragment from CBP (PPARα LBD; 10 nM PPAR LBD, CBP (57-454)): increased the apparent affinity
- effect on affinity of PPARα for the co-repressor peptide (PPARα LBD; 10 nM PPAR LBD, NCoR ID-C): enhanced the binding; also recorded: slightly increase the affinity
- alpha value for the association of PPARα and NCoR (PPARα LBD; [3]): 0.16
- effect on apparent affinity of PPARγ for the co-activator fragment from CBP (PPARγ LBD; CBP (57-454)): increased the apparent affinity
- effect on affinity of PPARγ for the co-repressor peptide (PPARγ LBD; NCoR ID-C): decrease the affinity
- effect on apparent affinity of PPARδ for the co-activator fragment from CBP (PPARδ LBD; 10 nM PPAR LBD, CBP (57-454)): increased the apparent affinity
- log α (NCoR association with PPARδ) (PPARδ LBD; [3]): 0.14
- effect on binding of PPARγ LBD to the NCOR- and SMRT-derived co-repressor peptides [2]: decreased the binding
- promotion of association of PPARδ with RXR (PPARδ LBD / RXRα LBD): most effective
- effect on PPARδ interaction with NCoR (full length human PPARδ): no significant association
- effect on PPARα interaction with NCoR (full length human PPARα): neither GW1929 nor GW7845 were able to promote association with NCoR

From US20050227220A1, “Compositions and Methods for Evaluating and Designing Nuclear Receptor Ligands that Modulate Co-Regulator Affinity” (priority 2002, published 2005)
